The values below come from patent publication US20210205401A1, “SYNERGISTIC DIETARY SUPPLEMENT COMPOSITIONS FOR THE PREVENTION, TREATMENT OR CONTROL OF INFLAMMATORY DISORDERS” (LAILA NUTRACEUTICALS, priority 2014, published 2021).

In assay [1] the test system is Freund's Complete Adjuvant induced arthritis model of Sprague Dawley (SD) rats. Nature of the assay: In-vivo anti-inflammatory activity of Composition-1, Freund's Complete Adjuvant induced arthritis model (Example 17). As to conditions: Composition-1 200 mg/kg body weight, Prednisolone 10 mg/kg, daily for 35 days, vs CMC control. The procedure: The in-vivo anti-inflammatory activity of composition-1, comprising the water extract of 50 g of Terminalia chebula, 25 g of methanol extract of Curcuma longa, 25 g of Boswellia serrata non-acidic resin extract (BNRE), so that their percentages in the composition are 50%, 25% and 25% respectively was evaluated by an in-vivo study in Freund's Complete Adjuvant induced arthritis model of Sprague Dawley (SD) rats.
(§1) Prednisolone was used as a positive control. The healthy male SD rats were selected and randomly divided into four groups containing six animals per group. The treatment group rats were supplemented daily with 200 mg/kg body weight of Composition-1 for 35 days. The positive control group was supplemented daily with Prednisolone at 10 mg/kg body weight. All supplements were diluted in 10 mL of 1% CMC for administration. The animals of control group received same volume of 1% CMC. At the 7th day, Freund's Complete Adjuvant (FCA) was injected subcutaneously in the sub-plantar region of the left hind paw of each animal. Paw volumes and weight bearing capacities were respectively measured using Plethysmography equipment and Incapacitance Meter on the day of FCA injection and on 35th day of treatment. The difference in volume of paw edema is considered as the inflammatory response. […]

The subject of assay [2] is Freund's Complete Adjuvant induced arthritis model of Sprague Dawley rats. Nature of the assay: In-vivo anti-inflammatory activity of Composition-7, Freund's Complete Adjuvant induced arthritis model (Example 18). As to conditions: Composition-7 200 mg/kg body weight p.o., Prednisolone 10 mg/kg, daily for 35 days, vs CMC control.
Text: The in-vivo anti-inflammatory activity of composition-7, comprising the water extract of 36 g of Terminalia chebula, 18 g of methanol extract of Curcuma longa, 18 g of Boswellia serrata non-acidic resin extract (BNRE), 18 g of Boswellia serrata extract standardized to 75%-85% total acids by volumetric assay which contain 5% 3-O-acetyl-11-keto-β-boswellic acid (AKBA) and 10 g of excipients [Microcrystalline cellulose (MCC) and Syloid], so that their percentages in the composition are 36%, 18%, 18%, 18% and 10% respectively was evaluated by an in-vivo study in Freund's Complete Adjuvant induced arthritis model of Sprague Dawley rats.
as §1, with “Composition-7” for “Composition-1”, “At the 7th day, Freund's Complete Adjuvant (FCA) was injected subcutaneously in the sub-plantar region of the left hind paw of each animal.” left out, “treatment.” for “treatment. The difference in volume of paw edema is considered as the inflammatory response.”

As to `C[C@]12C=CC(=O)C=C1CC[C@@H]1[C@@H]2[C@@H](O)C[C@@]2(C)[C@H]1CC[C@]2(O)C(=O)CO` [Prednisolone], the results for the “% inhibition of Paw edema” value in assay [1] and in assay [2] were 72.73% and 68.67%, respectively.
